Test system: stratum corneum desquamation
Assay: normalizing effect on stratum corneum desquamation
Source text: Oxa acids easily dissolve in water to concentrations of at least 20 to 30% by weight. […] Dicarboxylic acids of moderate to long chain length, which have straight, all-carbon backbones, are virtually insoluble in water and other aesthetically acceptable vehicles. This severely limits the choice of delivery vehicles for the dicarboxylic acids. The desquamatory activity of such dicarboxylic acids is also questionable.

Question: Which results are given for O=C(O)CCCCCCCCCCC(=O)O [dodecanedioic acid]?
Answer: normalizing effect on stratum corneum desquamation beyond that of vehicle alone (formulation containing 5% dodecanedioic acid): do not produce any normalizing effect; normalizing effect on stratum corneum desquamation beyond that of vehicle alone (formulation containing 10% dodecanedioic acid): do not produce any normalizing effect

Reference: US6534543B2, “Oxa acids and related compounds for treating skin conditions” (Avon Products, Inc., priority 1996, dated 2003)
